Laboratory results reported in PMC10892497, “Discovery of Pyrano[2,3-c]pyrazole Derivatives as Novel Potential Human Coronavirus Inhibitors: Design, Synthesis, In Silico, In Vitro, and ADME Studies” (Pharmaceuticals, 2024).
Like-named read-outs stand apart in the source and are kept apart here.

Columns and labels:
[1] = MTT assay for cellular toxicity; conditions: African green monkey
[2] = test system: HCoV-229E; assay: Cytopathic inhibition assay (crystal violet); conditions: for IC50: cytopathic inhibition assay; for antiviral activity against HCoV-229E (in words): Vero-E6
[3] = test system: HCoV-229E; assay: Mode of action using plaque assay (virucidal, adsorption, replication); assay type: cell-based, human coronavirus 229E; conditions: replication mechanism
[4] = molecular target: T1, SARS-CoV2 protease enzyme (3CL protease, M^pro) (Severe acute respiratory syndrome coronavirus 2, UniProt P0DTD1); assay: Protease (SARS-CoV2) inhibition test, 3CL Protease Test Kit; assay type: biochemical
T1 construct: provided with 30 µL of diluted 3CL Protease enzyme solution (M^pro); purchased BPS Bioscience, San Diego, CA, USA #79955-1

[5] = Human coronavirus 229E, Vero C1008, HCoV-229E in Vero-E6 cells
[6] = Vero-E6 cells infected with HCoV-229E

Q: Which CC50 at 48 h [1] does the source give for `Cc1n[nH]c2c1C(c1cccs1)C(C#N)=C(/N=C/c1nncn1C)O2` (stereo not drawn) [Compound 4] here?
A: 67.5 µM

Q: And the selectivity ratio [2]?
A: 0.9

Q: What about the IC50 ([2]; HCoV-229E in Vero-E6 cells) of the same compound?
A: 70.1 µM

Q: What about the “antiviral activity against HCoV-229E (in words)” value (from here on “antiviral activity”) [2] of the same compound?
A: did not

Q: What about the IC50 [2, 5] of the same compound?
A: 78.1 µM

Q: Which CC50 at 48 h [1] does the source give for `CCO/C=N/C1=C(C#N)C(c2cccs2)c2c(C)n[nH]c2O1` (stereo not drawn) [Compound 9] here?
A: 365 µM

Q: And the selectivity ratio [2]?
A: 2.3

Q: What about the IC50 ([2]; HCoV-229E in Vero-E6 cells) of the same compound?
A: 134 µM

Q: And the “antiviral activity” value [2]?
A: minimal antiviral activity

Q: What about the IC50 [2, 5] of the same compound?
A: 134 µM

Q: For `Cc1n[nH]c2c1C(c1cccs1)C1=C(NC(c3csnn3)c3c(C(F)(F)F)nn(C)c3OC1=N)O2` (stereo not drawn) [Compound 8], which CC50 at 48 h [1] is on record?
A: 45.3 µM

Q: And the selectivity ratio [2]?
A: 0.6

Q: And the IC50 ([2]; HCoV-229E in Vero-E6 cells)?
A: 69.1 µM

Q: And the “antiviral activity” value [2]?
A: did not

Q: What about the IC50 [2, 5] of the same compound?
A: 86.2 µM

Q: With `Cc1n[nH]c2c1C(c1cccs1)C(C#N)=C(/N=C/[C@H](O)[C@@H](O)[C@@H](O)[C@H](O)CO)O2` (stereo partly drawn) [Compound 18] as the compound, how does the “reduction percentage, replication phase” value [3] read?
A: 82.2%

Q: And the IC50 [4]?
A: 66.1 µM

Q: And the melting point?
A: > 300 °C

Q: What about the CC50 at 48 h [1] of the same compound?
A: 567 µM

Q: And the IC50 [2, 5]?
A: 44.9 µM

Q: And the selectivity ratio [2, 6]?
A: 12.6

Q: Which “reduction percentage, replication phase” value [3] does the source give for `Cc1n[nH]c2c1C(c1cccs1)C(C#N)=C(N1C(=O)C(Cl)C1c1nncn1C)O2` (stereo not drawn) [Compound 6] here?
A: 53.6%

Q: What about the IC50 [4] of the same compound?
A: 105 µM

Q: What about the CC50 at 48 h [1] of the same compound?
A: 585 µM

Q: And the IC50 ([2]; HCoV-229E in Vero-E6 cells)?
A: 89.4 µM

Q: What about the “antiviral activity” value [2] of the same compound?
A: moderate efficacies

Q: And the IC50 [2, 5]?
A: 65.6 µM

Q: What about the selectivity ratio [2, 6] of the same compound?
A: 7.6

Q: For `Cc1n[nH]c2c1C(c1cccs1)C(C#N)=C(/N=C/[C@@H](O)[C@H](O)[C@H](O)CO)O2` (stereo partly drawn) [Compound 15], which melting point is on record?
A: > 300 °C

Q: What about the CC50 at 48 h [1] of the same compound?
A: 146 µM

Q: And the selectivity ratio [2]?
A: 1.18

Q: And the IC50 ([2]; HCoV-229E in Vero-E6 cells)?
A: 123 µM

Q: What about the “antiviral activity” value [2] of the same compound?
A: minimal antiviral activity

Q: And the IC50 [2, 5]?
A: 123 µM

Q: Which CC50 at 48 h [1] does the source give for `Cc1n[nH]c2c1C(c1cccs1)c1c(ncn3ncnc13)O2` (stereo not drawn) [Compound 12] here?
A: 66.6 µM

Q: And the selectivity ratio [2]?
A: 3.5

Q: And the “antiviral activity” value [2]?
A: minimal antiviral activity

Q: And the IC50 [2, 5]?
A: 18.6 µM

Q: Which results are given for `Cc1n[nH]c2c1C(c1cccs1)C(C#N)=C(N1C(=O)CSC1c1nncn1C)O2` (stereo not drawn) [Compound 5]?
A: CC50 at 48 h [1]: 95.4 µM; selectivity ratio [2]: 1.86; antiviral activity against HCoV-229E (in words) [2]: minimal antiviral activity; IC50 [2, 5]: 51.2 µM

Q: What does the source list for `Cc1n[nH]c2c1C(c1cccs1)C(C#N)=C(/N=C/[C@@H](O)[C@@H](O)[C@H](O)[C@H](O)CO)O2` (stereo partly drawn) [Compound 17]?
A: melting point: > 300 °C; CC50 at 48 h [1]: 183 µM; selectivity ratio [2]: 1.7; antiviral activity against HCoV-229E (in words) [2]: minimal antiviral activity; IC50 [2, 5]: 95.4 µM

Q: Which results are given for `Cc1n[nH]c2c1C(c1cccs1)c1c(ncn3nc(-c4nc[nH]n4)nc13)O2` (stereo not drawn) [Compound 13]?
A: CC50 at 48 h [1]: 49.8 µM; selectivity ratio [2]: 0.46; IC50 ([2]; HCoV-229E in Vero-E6 cells): 88.8 µM; antiviral activity against HCoV-229E (in words) [2]: did not; IC50 [2, 5]: 88.8 µM

Q: Which results are given for `COP(=O)(OC)C1(c2csnn2)NC2=C(C1=O)C(c1cccs1)c1c(C)n[nH]c1O2` (stereo not drawn) [Compound 7, dimethyl(3-methyl-5-oxo-6-(1,2,3-thiadiazol-4-yl)-4-(thiophen-2-yl)-4,5,6,7-tetrahydro-1H-pyrrolo[3′,2′:5,6]pyrano[2,3-c]pyrazol-6-yl)phosphonate]?
A: reduction percentage, replication phase [3]: 60.7%; IC50 [4]: 772 µM; CC50 at 48 h [1]: 190 µM; selectivity ratio [2]: 4.3; IC50 ([2]; HCoV-229E in Vero-E6 cells): 25.8 µM; antiviral activity against HCoV-229E (in words) [2]: moderate efficacies; IC50 [2, 5]: 35.8 µM

Q: Which results are given for `Cc1n[nH]c2c1C(c1cccs1)C(C#N)=C(/N=C/[C@H](O)[C@@H](O)[C@H](O)CO)O2` (stereo partly drawn) [Compound 14]?
A: reduction percentage, replication phase [3]: 55%; IC50 [4]: 180 µM; CC50 at 48 h [1]: 507 µM; antiviral activity against HCoV-229E (in words) [2]: moderate efficacies; IC50 [2, 5]: 78.7 µM; selectivity ratio [2, 6]: 6.5

Q: Which CC50 at 48 h [1] does the source give for `Cc1n[nH]c2c1C(c1cccs1)c1c(ncn3[nH]c(=S)nc13)O2` (stereo not drawn) [Compound 11] here?
A: 19.7 µM

Q: What about the selectivity ratio [2] of the same compound?
A: 1.7

Q: What about the IC50 ([2]; HCoV-229E in Vero-E6 cells) of the same compound?
A: 10.9 µM

Q: And the “antiviral activity” value [2]?
A: minimal antiviral activity

Q: And the IC50 [2, 5]?
A: 16 µM

Q: What does the source list for `Cc1n[nH]c2c1C(c1cccs1)c1c(ncn(N)c1=N)O2` (stereo not drawn) [Compound 10]?
A: CC50 at 48 h [1]: 25.4 µM; selectivity ratio [2]: 1.3; antiviral activity against HCoV-229E (in words) [2]: minimal antiviral activity

Q: For `CCC[C@@]1(CCc2ccccc2)CC(O)=C([C@H](CC)c2cccc(NS(=O)(=O)c3ccc(C(F)(F)F)cn3)c2)C(=O)O1` [tipranavir, reference compound], which IC50 [4] is on record?
A: 22.1 µM

Q: What does the source list for `Cc1n[nH]c2c1C(c1cccs1)c1c(N)ncnc1O2` (stereo not drawn) [Compound 2]?
A: CC50 at 48 h [1]: 749 µM; selectivity ratio [2]: 2.4; antiviral activity against HCoV-229E (in words) [2]: minimal antiviral activity; IC50 [2, 5]: 309 µM
